From patent publication US7459444B2, “Inhibitors of chymase” (Janssen Pharmaceutica N.V., priority 2004, dated 2008) come the findings set out here.

The target of the test is T1, human skin chymase (Homo sapiens, UniProt P23946).
T1 construct: using human skin chymase (Cortex Biochem); purchased Cortex Biochem
T1 sequence (P23946 22-247): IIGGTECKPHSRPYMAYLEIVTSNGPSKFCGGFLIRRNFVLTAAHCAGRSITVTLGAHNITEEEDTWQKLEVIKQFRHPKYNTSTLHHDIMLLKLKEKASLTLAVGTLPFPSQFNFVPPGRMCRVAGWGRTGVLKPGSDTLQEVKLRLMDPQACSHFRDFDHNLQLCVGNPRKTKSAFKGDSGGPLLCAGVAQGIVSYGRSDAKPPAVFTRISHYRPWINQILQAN
In words: Enzyme-catalyzed hydrolysis assay (chymase inhibition). The format is biochemical. Particulars: 10 nM enzyme, 0.7 mM Suc-Ala-Ala-Pro-Phe-pNa, pH 8.0, 37° C., 30 minutes. The protocol:
Enzyme-catalyzed hydrolysis rates were measured spectro-photometrically using human skin chymase (Cortex Biochem), a chromogenic substrate (Suc-Ala-Ala-Pro-Phe-pNa) (Bachem) in aqueous buffer (450 mM Tris, 1800 mM NaCl, pH 8.0), and a microplate reader (Molecular Devices). […] Percent inhibition was calculated by comparing the initial reaction slopes of the samples without inhibitor to those with inhibitor. IC50 values were determined using a four parameter fit logistics model. The term “NT” indicates a compound that was not tested.
`CN(C(=O)c1cc2ccccc2cc1NC(=O)C(c1cccc2ccccc12)P(=O)(O)O)C1CCCC1` (centres unmarked) [Cpd 91]: the IC50 (as a rule, the concentration that inhibits the measured activity by half) was found to be 2.32 µM. This lies in the single-digit micromolar range. `CP(=O)(O)C(C(=O)Nc1ccc2ccccc2c1)c1c(C(=O)NCc2ccccc2)sc2ccccc12` (centres unmarked) [Cpd 127] showed a half-maximal inhibitory concentration (IC50) of 7 ± 1.1 µM. This IC50 lies about 3-fold higher than the previous one. Consider `CP(=O)(O)C(C(=O)N/C=C/c1cccc(N)c1)c1csc2ccc(Cl)cc12` (centres unmarked) [Cpd 172], for which it took 0.041 ± 0.02 µM to reach half-maximal inhibition (IC50). In the case of `Cn1cc(C(C(=O)Nc2ccc3ccccc3c2)P(=O)(O)O)c2ccc(Cl)cc21` (centres unmarked) [Cpd 52], the IC50 worked out at 0.48 ± 0.18 µM. `CP(=O)(O)C(C(=O)Nc1ccc2ccccc2c1)c1c(C(=O)O)sc2ccccc12` (centres unmarked) [Cpd 118] displayed an IC50 of 5.72 ± 0.013 µM. As for `O=C(COc1cc2ccccc2cc1NC(=O)C(c1cccc2ccccc12)P(=O)(O)O)NCCCc1ccccc1` (centres unmarked) [Cpd 130], the figure is 7.44 ± 3.73 µM.

As for `Nc1nc2ccc(NC(=O)C(c3csc4ccc(Cl)cc34)P(=O)(O)O)cc2s1` (centres unmarked) [Cpd 69, [(5-Chloro-benzo[b]thiophen-3-yl)-(2-amino-4-benzothioazol-6-ylcarbamoyl)-methyl]-phosphonic acid], the IC50 came to 0.93 ± 0.95 µM. With `COCCCP(=O)(O)C(C(=O)Nc1ccc2ccccc2c1)c1csc2ccc(Cl)cc12` (centres unmarked) [Cpd 34], it took 0.22 ± 0.01 µM to reach half-maximal inhibition (IC50). Next, `Cn1cc(C(C(=O)Nc2ccc3ccccc3c2)P(=O)(O)O)c2cc(-c3ccc(F)cc3)ccc21` (centres unmarked) [Cpd 98, [[5-(4-Fluoro-phenyl)-1-methyl-1H-indol-3-yl]-(naphthalen-2-ylcarbamoyl)-methyl]-phosphonic acid]: 2.9 µM; `CN(Cc1ccccc1)Cc1cc2ccccc2cc1NC(=O)C(c1cccc2ccccc12)P(=O)(O)O` (centres unmarked) [Cpd 142]: 9.54 ± 4.2 µM; `O=C(Nc1cc2ccccc2cc1C(=O)N1CCC(n2c(=O)[nH]c3ccccc32)CC1)C(c1cccc2ccccc12)P(=O)(O)O` (centres unmarked) [Cpd 93]: 2.7 µM.

In turn, `CP(=O)(O)C(C(=O)Nc1ccc2ccccc2c1)c1c(C(=O)N2CCC(c3ccccc3)CC2)sc2ccccc12` (centres unmarked) [Cpd 32, Methyl-{(naphthalen-2-ylcarbamoyl)-[2-(4-phenyl-piperidine-1-carbonyl)-benzo[b]thiophen-3-yl]-methyl}-phosphinic acid] displayed an IC50 of 0.21 ± 0.01 µM. With `O=C(NC=Cc1ccc(O)cc1)C(c1csc2ccc(Cl)cc12)P(=O)(O)O` (centres unmarked) [Cpd 66], the half-inhibitory concentration (IC50) worked out at 0.868 ± 0.13 µM. Next, `CP(=O)(O)C(C(=O)N/C=C/c1cc(F)cc(F)c1)c1csc2ccc(Cl)cc12` (centres unmarked) [Cpd 162]: 0.009 µM; `O=C(Nc1ccc2ccccc2n1)C(c1cccc2ccccc12)P(=O)(O)O` (centres unmarked) [Cpd 96]: 2.8 µM.

`CP(=O)(O)C(C(=O)N/C=C/c1cccc(Br)c1)c1csc2ccc(Cl)cc12` (centres unmarked) [Cpd 167] displayed an IC50 of 0.017 ± 0.04 µM. As for `O=C(Nc1ccc2ccsc2c1)C(c1cccc2ccccc12)P(=O)(O)O` (centres unmarked) [Cpd 59], the figure is 0.635 µM.

As for “({3-[(1-Benzoyl-piperidin-4-ylamino)-methyl]-naphthalen-2-ylcarbamoyl}-naphthalen-1-yl-methyl)-phosphonic acid [Cpd 44]”, the IC50 amounted to 0.35 ± 0.22 µM.

Regarding `CN(Cc1cc2ccccc2cc1NC(=O)C(c1cccc2ccccc12)P(=O)(O)O)C1CCN(C(=O)c2ccc3ccccc3c2)CC1` (centres unmarked) [Cpd 102, {[3-({Methyl-[1-(naphthalene-2-carbonyl)-piperidin-4-yl]-amino}-methyl)-naphthalen-2-ylcarbamoyl]-naphthalen-1-yl-methyl}-phosphonic acid], the midpoint of inhibition, the IC50, lay at 3.45 µM.

Molecule `O=C(Nc1ccc2ccccc2c1)C(CO)c1csc2ccc(Cl)cc12` (centres unmarked) [Cpd 136, 2-(5-Chloro-benzo[b]thiophen-3-yl)-3-hydroxy-N-naphthalen-2-yl-propionamide] came in with an IC50 of 8.63 ± 0.81 µM. As for `O=C(Nc1ccc2ccccc2c1)C(c1csc2ccc(Cl)cc12)P(=O)(O)CCCCc1ccccc1` (centres unmarked) [Cpd 51], the IC50 is 0.46 ± 0.06 µM. Consider `O=C(Nc1cc2ccccc2cc1CNCCCCCO)C(c1cccc2ccccc12)P(=O)(O)O` (centres unmarked) [Cpd 133], for which the IC50 was 8.08 ± 3.15 µM. This IC50 lies about 18-fold higher than the previous one.

`CP(=O)(O)C(C(=O)N/C=C/c1cc(F)c(F)c(F)c1)c1csc2ccc(Cl)cc12` (centres unmarked) [Cpd 16] displayed an IC50 of 0.055 ± 0.005 µM.

For “[(5-Chloro-benzo[b]thiophen-3-yl)-(naphthalen-2-ylcarbamoyl)-methyl]-carbamate [Cpd 80]”, 1.65 ± 0.68 µM corresponded to half-maximal inhibition (IC50).

In turn, `O=C(Nc1cc(NC(=O)C(c2cccc3ccccc23)P(=O)(O)O)cc2ccccc12)C1CCN(C(=O)c2ccc3ccccc3c2)CC1` (centres unmarked) [Cpd 8, [(4-{[1-(Naphthalene-2-carbonyl)-piperidine-4-carbonyl]-amino}-naphthalen-2-ylcarbamoyl)-naphthalen-1-yl-methyl]-phosphonic acid] yielded a half-maximal inhibitory concentration (IC50) of 0.021 ± 0.01 µM. The molecule `COc1ccc(C=CNC(=O)C(c2csc3ccc(Cl)cc23)P(=O)(O)O)cc1OC` (centres unmarked) [Cpd 49] showed an IC50 of 0.43 ± 0.09 µM.

`O=C(Nc1ccccc1)Oc1cc2ccccc2cc1NC(=O)C(c1cccc2ccccc12)P(=O)(O)O` (centres unmarked) [Cpd 95, [Naphthalen-1-yl-(3-phenylcarbamoyloxy-naphthalen-2-yl-carbamoyl)-methyl]-phosphonic acid] displayed an IC50 of 2.8 µM. Consider `O=C(Nc1cc2ccccc2cc1CNC1CCCCC1)C(c1cccc2ccccc12)P(=O)(O)O` (centres unmarked) [Cpd 70, [(3-Cyclohexylaminomethyl-naphthalen-2-ylcarbamoyl)-naphthalen-1-yl-methyl]-phosphonic acid], for which half-maximal inhibition (IC50) was put at 0.93 ± 0.07 µM. Molecule `O=C(Nc1ccc2ccccc2c1)C(c1cn(-c2ccccc2)c2ccccc12)P(=O)(O)O` (centres unmarked) [Cpd 82, [(Naphthalen-2-ylcarbamoyl)-(1-phenyl-1H-indol-3-yl)-methyl]-phosphonic acid] had an IC50 of 1.7 ± 0.41 µM. This IC50 lies about 1.8-fold higher than the previous one. Next, `CC(C)n1cc(C(C(=O)Nc2ccc3ccccc3c2)P(=O)(O)O)c2ccccc21` (centres unmarked) [Cpd 77]: 1.48 ± 0.45 µM.

As to `Cc1ccccc1C=CNC(=O)C(c1csc2ccc(Cl)cc12)P(C)(=O)O` (centres unmarked) [Cpd 155], half-maximal inhibition (IC50) required 0.34 ± 0.04 µM. This IC50 is about 4.4-fold lower than that of the molecule before.

In turn, `CC(=O)Oc1ccccc1/C=C/NC(=O)C(c1csc2ccc(Cl)cc12)P(C)(=O)O` (centres unmarked) [Cpd 148] returned a half-maximal inhibitory concentration (IC50) of 0.23 ± 0.04 µM. Regarding `CP(=O)(O)C(C(=O)N/C=C/c1ccc(F)cc1F)c1csc2ccc(Cl)cc12` (centres unmarked) [Cpd 171], it took 0.025 ± 0.01 µM to reach half-maximal inhibition (IC50). As for `O=C(Nc1cc2ccccc2cc1C(=O)N1CCC2(CC1)C(=O)NCN2c1ccccc1)C(c1cccc2ccccc12)P(=O)(O)O` (centres unmarked) [Cpd 104], the IC50 stood at 3.88 ± 2.41 µM.

`Cn1cc(C(C(=O)Nc2ccc3ccccc3c2)P(=O)(O)O)c2cccnc21` (centres unmarked) [Cpd 116] gave a concentration for half-maximal inhibition (IC50) of 5.4 µM. The molecule `CP(=O)(O)C(C(=O)NC=Cc1ccc(Cl)cc1)c1csc2ccc(Cl)cc12` (centres unmarked) [Cpd 78] yielded a concentration for half-maximal inhibition (IC50) of 1.5 ± 0.43 µM. This IC50 lies about 3.6-fold lower than the previous one. In turn, `O=C(Nc1ccc2ccccc2c1)C(c1csc2ccc(Cl)cc12)P(=O)(O)CCCc1ccc(O)cc1` (centres unmarked) [Cpd 43] returned a concentration for half-maximal inhibition (IC50) of 0.35 ± 0.07 µM. Next, `O=C(Nc1ccc2sccc2c1)C(c1csc2ccc(Cl)cc12)P(=O)(O)O` (centres unmarked) [Cpd 55]: 0.52 ± 0.51 µM; `Nc1cc2ccccc2cc1NC(=O)C(c1cccc2ccccc12)P(=O)(O)O` (centres unmarked) [Cpd 132]: 7.9 µM. Molecule `COc1cc(/C=C/NC(=O)C(c2csc3ccc(Cl)cc23)P(C)(=O)O)cc(OC)c1` (centres unmarked) [Cpd 168] yielded an IC50 of 0.0059 ± 0.01 µM. In turn, `O=C(Nc1cc2ccccc2cc1C(=O)N1CCC(c2ccccc2)CC1)C(c1cccc2ccccc12)P(=O)(O)O` (centres unmarked) [Cpd 101] registered an IC50 of 3.12 µM. As for `O=C(Nc1ccc2ccccc2c1)C(c1nnn[nH]1)c1csc2ccc(Cl)cc12` (centres unmarked) [Cpd 88, 2-(5-Chloro-benzo[b]thiophen-3-yl)-n-naphthalen-2-yl-2-(1h-tetrazol-5-yl)-acetamide], the figure is 2.04 ± 0.19 µM; as for `O=C(Nc1ccc2ccccc2c1)C(C1=CS(=O)(=O)c2ccc(Cl)cc21)P(=O)(O)O` (centres unmarked) [Cpd 86, [(5-Chloro-1,1-dioxo-1H-1λ^6-benzo[b]thiophen-3-yl)-(naphthalen-2-ylcarbamoyl)-methyl]-phosphonic acid], 1.9 ± 0.4 µM; as for `O=C(Nc1cc2ccccc2cc1C(=O)N1CCC(S(=O)(=O)c2ccccc2)C1)C(c1cccc2ccccc12)P(=O)(O)O` (centres unmarked) [Cpd 103], 3.63 µM. Molecule `O=C(NC=Cc1ccc(C(F)(F)F)cc1)C(c1csc2ccc(Cl)cc12)P(=O)(O)O` (centres unmarked) [Cpd 81] yielded a half-maximal inhibitory concentration (IC50) of 1.7 ± 0.21 µM. As for `COc1ccc(CCCP(=O)(O)C(C(=O)Nc2ccc3ccccc3c2)c2csc3ccc(Cl)cc23)cc1` (centres unmarked) [Cpd 53], the figure is 0.49 ± 0.16 µM. As for `COc1cccc(/C=C/NC(=O)C(c2csc3ccc(Cl)cc23)P(C)(=O)O)c1OC` (centres unmarked) [Cpd 165], the figure is 0.078 ± 0.03 µM; as for `CN(Cc1ccccc1)C(=O)c1cc2ccccc2cc1NC(=O)C(c1cccc2ccccc12)P(=O)(O)O` (centres unmarked) [Cpd 111], 4.62 µM. As for `Cn1cc(C(C(=O)N/C=C/c2cccc(F)c2)P(C)(=O)O)c2cc(Cl)ccc21` (centres unmarked) [Cpd 6], the figure is 0.02 µM. Regarding `O=C(Nc1ccc2ccccc2c1)OCc1cc2ccccc2cc1NC(=O)C(c1cccc2ccccc12)P(=O)(O)O` (centres unmarked) [Cpd 105], the IC50 is 4.1 µM. As for `O=C(Nc1cc2ccccc2cc1OCc1ccccc1)C(c1cccc2ccccc12)P(=O)(O)O` (centres unmarked) [Cpd 122, [(3-Benzyloxy-naphthalen-2-ylcarbamoyl)-naphthalen-1-yl-methyl]-phosphonic acid], the figure is 5.94 ± 1.69 µM; as for `CN(C(=O)c1cc2ccccc2cc1NC(=O)C(c1cccc2ccccc12)P(=O)(O)O)C1CC=C(c2ccccc2)CC1` (centres unmarked) [Cpd 46, ({3-[Methyl-(4-phenyl-cyclohex-3-enyl)-carbamoyl]-naphthalen-2-ylcarbamoyl}-naphthalen-1-yl-methyl)-phosphonic acid], 0.388 ± 0.116 µM.

As for `O=C(Nc1cc2ccccc2cc1OCC=Cc1ccccc1)C(c1cccc2ccccc12)P(=O)(O)O` (centres unmarked) [Cpd 121], inhibition was half-maximal at 5.9 µM (IC50).
